Reference: patent publication US9624241B2 (Incyte Corporation, priority 2013, dated 2017)

Columns and labels:
BRD4-BD2 = BRD4-BD2 (Homo sapiens (Human), UniProt O60885); assay: BRD4 AlphaScreen Assay (Example A1), BRD4-BD2; assay type: binding; conditions: Assay A1, 20 nM BRD4-BD2, 50 nM H4Ac4 peptide; read-out: BRD4 BD-2 enzyme IC50
Description: (§1) BRD4-BD1 and BRD4-BD2 assays were conducted in white 384-well polystyrene plate in a final volume of 20 μL for BD1 and 40 μL for BD2. Inhibitors were first serially diluted in DMSO and added to the plate wells before the addition of other reaction components. […] After plate sealing, the plate was incubated in the dark at room temperature for 75 min. before reading on a PHERAstar FS plate reader (BMG Labtech). IC50 determination was performed by fitting the curve of percent control activity versus the log of the inhibitor concentration using the GraphPad Prism 5.0 software.

BRD4-BD1 = BRD4-BD1 (Homo sapiens (Human), UniProt O60885); assay: BRD4 AlphaScreen Assay (Example A1), BRD4-BD1; assay type: binding; conditions: Assay A1, 3.8 nM BRD4-BD1, 50 nM H4Ac4 peptide; read-out: BRD4 BD-1 enzyme IC50
Description: as §1

IC50 (BRD4-BD2) [nM]	IC50 (BRD4-BD1) [nM]	SMILES
< 100	< 100	Cc1noc(C)c1-c1ccc2[nH]c(=O)n3c2c1OCC3c1ccc(C#N)cc1 (centres unmarked) [Example 4, 4-[7-(3,5-Dimethylisoxazol-4-yl)-2-oxo-1,2,4,5-tetrahydroimidazo[1,5,4-de][1,4]benzoxazin-4-yl]benzonitrile]
< 100	< 100	Cc1noc(C)c1-c1ccc2[nH]c(=O)n3c2c1OCC3c1cccnc1 (centres unmarked) [Example 5, 7-(3,5-Dimethylisoxazol-4-yl)-4-pyridin-3-yl-4,5-dihydroimidazo[1,5,4-de][1,4]benzoxazin-2(1H)-one]
< 100	< 100	COc1cccc(C2COc3c(-c4c(C)noc4C)ccc4[nH]c(=O)n2c34)c1 (centres unmarked) [Example 6, 7-(3,5-Dimethylisoxazol-4-yl)-4-(3-methoxyphenyl)-4,5-dihydroimidazo[1,5,4-de][1,4]benzoxazin-2(1H)-one]
< 100	< 100	COc1ccccc1C1COc2c(-c3c(C)noc3C)ccc3[nH]c(=O)n1c23 (centres unmarked) [Example 7, 7-(3,5-Dimethylisoxazol-4-yl)-4-(2-methoxyphenyl)-4,5-dihydroimidazo[1,5,4-de][1,4]benzoxazin-2(1H)-one]
< 100	< 100	Cc1noc(C)c1-c1ccc2[nH]c(=O)n3c2c1OCC3c1ccc(F)cc1F (centres unmarked) [Example 8, 7-(3,5-Dimethylisoxazol-4-yl)-4-(2,4-difluorophenyl)-4,5-dihydroimidazo[1,5,4-de][1,4]benzoxazin-2(1H)-one]
< 100	< 100	Cc1noc(C)c1-c1ccc2nc(C)n3c2c1OCC3c1ccccc1 (centres unmarked) [Example 9, 7-(3,5-Dimethylisoxazol-4-yl)-2-methyl-4-phenyl-4,5-dihydroimidazo[1,5,4-de][1,4]benzoxazine]
< 100	100 to 1000	Cc1noc(C)c1-c1ccc2c3c1OCC(c1ccccc1)n3c(=O)n2CCN1CCOCC1 (centres unmarked) [Example 10, 7-(3,5-Dimethylisoxazol-4-yl)-1-(2-morpholin-4-ylethyl)-4-phenyl-4,5-dihydroimidazo[1,5,4-de][1,4]benzoxazin-2(1H)-one]
100 to 1000	1000 to 10000	Cc1n[nH]c(C)c1-c1ccc2[nH]c(=O)n3c2c1OCC3c1ccccc1 (centres unmarked) [Example 11, 7-(3,5-Dimethyl-1H-pyrazol-4-yl)-4-phenyl-4,5-dihydroimidazo[1,5,4-de][1,4]benzoxazin-2(1H)-one]
< 100	100 to 1000	Cc1n[nH]cc1-c1ccc2[nH]c(=O)n3c2c1OCC3c1ccccc1 (centres unmarked) [Example 12, 7-(3-Methyl-1H-pyrazol-4-yl)-4-phenyl-4,5-dihydroimidazo[1,5,4-de][1,4]benzoxazin-2(1H)-one]
< 100	< 100	Cc1noc(C)c1-c1ccc2[nH]c(=O)n3c2c1OCC3C1CCCCC1 (centres unmarked) [Example 17, 4-Cyclohexyl-7-(3,5-dimethylisoxazol-4-yl)-4,5-dihydroimidazo[1,5,4-de][1,4]benzoxazin-2(1H)-one]
< 100	< 100	Cc1noc(C)c1-c1ccc2[nH]c(=O)n3c2c1OCC3c1nccs1 (centres unmarked) [Example 21, 7-(3,5-Dimethylisoxazol-4-yl)-4-(1,3-thiazol-2-yl)-4,5-dihydroimidazo[1,5,4-de][1,4]benzoxazin-2(1H)-one]
< 100	< 100	CCNC(=O)COc1ccccc1C1COc2c(-c3c(C)noc3C)ccc3[nH]c(=O)n1c23 (centres unmarked) [Example 22, 2-{2-[7-(3,5-Dimethylisoxazol-4-yl)-2-oxo-1,2,4,5-tetrahydroimidazo[1,5,4-de][1,4]benzoxazin-4-yl]phenoxy}-N-ethylacetamide]
< 100	< 100	Cc1noc(C)c1-c1ccc2nc(NC(C)C)n3c2c1OCC3c1ccccc1 (centres unmarked) [Example 25, 7-(3,5-Dimethylisoxazol-4-yl)-N-isopropyl-4-phenyl-4,5-dihydroimidazo[1,5,4-de][1,4]benzoxazin-2-amine]
< 100	< 100	CNc1nc2ccc(-c3c(C)noc3C)c3c2n1C(c1ccccc1)CO3 (centres unmarked) [Example 26, 7-(3,5-Dimethylisoxazol-4-yl)-N-methyl-4-phenyl-4,5-dihydroimidazo[1,5,4-de][1,4]benzoxazin-2-amine]
< 100	< 100	CCNc1nc2ccc(-c3c(C)noc3C)c3c2n1C(c1ccccc1)CO3 (centres unmarked) [Example 27, 7-(3,5-Dimethylisoxazol-4-yl)-N-ethyl-4-phenyl-4,5-dihydroimidazo[1,5,4-de][1,4]benzoxazin-2-amine]
< 100	< 100	Cc1noc(C)c1-c1ccc2nc(N(C)C)n3c2c1OCC3c1ccccc1 (centres unmarked) [Example 28, 7-(3,5-Dimethylisoxazol-4-yl)-N,N-dimethyl-4-phenyl-4,5-dihydroimidazo[1,5,4-de][1,4]benzoxazin-2-amine]
< 100	< 100	Cc1noc(C)c1-c1ccc2nc(NCCO)n3c2c1OCC3c1ccccc1 (centres unmarked) [Example 29, 2-{[7-(3,5-Dimethylisoxazol-4-yl)-4-phenyl-4,5-dihydroimidazo[1,5,4-de][1,4]benzoxazin-2-yl]amino}ethanol]
< 100	< 100	Cc1noc(C)c1-c1ccc2nc(NCC(C)O)n3c2c1OCC3c1ccccc1 (centres unmarked) [Example 32, 1-{[7-(3,5-Dimethylisoxazol-4-yl)-4-phenyl-4,5-dihydroimidazo[1,5,4-de][1,4]benzoxazin-2-yl]amino}propan-2-ol]
100 to 1000	1000 to 10000	Cc1noc(C)c1-c1ccc2nc(NC(C)(C)CO)n3c2c1OCC3c1ccccc1 (centres unmarked) [Example 33, 2-{[7-(3,5-Dimethylisoxazol-4-yl)-4-phenyl-4,5-dihydroimidazo[1,5,4-de][1,4]benzoxazin-2-yl]amino}-2-methylpropan-1-ol]
< 100	< 100	Cc1noc(C)c1-c1ccc2nc(N(C)CCO)n3c2c1OCC3c1ccccc1 (centres unmarked) [Example 34, 2-[[7-(3,5-Dimethylisoxazol-4-yl)-4-phenyl-4,5-dihydroimidazo[1,5,4-de][1,4]benzoxazin-2-yl](methyl)amino]ethanol]
< 100	100 to 1000	Cn1nccc1-c1ccc2[nH]c(=O)n3c2c1OCC3c1ccccc1 (centres unmarked) [Example 35, 7-(1-Methyl-1H-pyrazol-5-yl)-4-phenyl-4,5-dihydroimidazo[1,5,4-de][1,4]benzoxazin-2(1H)-one]
< 100	100 to 1000	Cn1nccc1-c1cc(Br)c2[nH]c(=O)n3c2c1OCC3c1ccccc1 (centres unmarked) [Example 36, 9-Bromo-7-(1-methyl-1H-pyrazol-5-yl)-4-phenyl-4,5-dihydroimidazo[1,5,4-de][1,4]benzoxazin-2(1H)-one]
< 100	100 to 1000	Cc1cc(-c2ccnn2C)c2c3c1[nH]c(=O)n3C(c1ccccc1)CO2 (centres unmarked) [Example 37, 9-Methyl-7-(1-methyl-1H-pyrazol-5-yl)-4-phenyl-4,5-dihydroimidazo[1,5,4-de][1,4]benzoxazin-2(1H)-one]
100 to 1000	1000 to 10000	Cn1ncc(Cl)c1-c1ccc2[nH]c(=O)n3c2c1OCC3c1ccccc1 (centres unmarked) [Example 38, 7-(4-Chloro-1-methyl-1H-pyrazol-5-yl)-4-phenyl-4,5-dihydroimidazo[1,5,4-de][1,4]benzoxazin-2(1H)-one]
< 100	< 100	Cc1noc(C)c1-c1ccc2ncn3c2c1OCC3c1ccccc1 (centres unmarked) [Example 39, 7-(3,5-Dimethylisoxazol-4-yl)-4-phenyl-4,5-dihydroimidazo[1,5,4-de][1,4]benzoxazine]
